Laboratory results as given in ChEMBL document CHEMBL4321833, “Sugar Kick Prevents Memory Impairment” (J Med Chem, 2019).

How the values were obtained:
[1] = Apparent permeability of the compound; format: ADME; conditions: not told
Protein O-GlcNAcase = biological target: T1, Protein O-GlcNAcase (Homo sapiens, UniProt O60502); experiment: Inhibition of human O-GlcNAcase
T1 sequence (O60502 whole entry): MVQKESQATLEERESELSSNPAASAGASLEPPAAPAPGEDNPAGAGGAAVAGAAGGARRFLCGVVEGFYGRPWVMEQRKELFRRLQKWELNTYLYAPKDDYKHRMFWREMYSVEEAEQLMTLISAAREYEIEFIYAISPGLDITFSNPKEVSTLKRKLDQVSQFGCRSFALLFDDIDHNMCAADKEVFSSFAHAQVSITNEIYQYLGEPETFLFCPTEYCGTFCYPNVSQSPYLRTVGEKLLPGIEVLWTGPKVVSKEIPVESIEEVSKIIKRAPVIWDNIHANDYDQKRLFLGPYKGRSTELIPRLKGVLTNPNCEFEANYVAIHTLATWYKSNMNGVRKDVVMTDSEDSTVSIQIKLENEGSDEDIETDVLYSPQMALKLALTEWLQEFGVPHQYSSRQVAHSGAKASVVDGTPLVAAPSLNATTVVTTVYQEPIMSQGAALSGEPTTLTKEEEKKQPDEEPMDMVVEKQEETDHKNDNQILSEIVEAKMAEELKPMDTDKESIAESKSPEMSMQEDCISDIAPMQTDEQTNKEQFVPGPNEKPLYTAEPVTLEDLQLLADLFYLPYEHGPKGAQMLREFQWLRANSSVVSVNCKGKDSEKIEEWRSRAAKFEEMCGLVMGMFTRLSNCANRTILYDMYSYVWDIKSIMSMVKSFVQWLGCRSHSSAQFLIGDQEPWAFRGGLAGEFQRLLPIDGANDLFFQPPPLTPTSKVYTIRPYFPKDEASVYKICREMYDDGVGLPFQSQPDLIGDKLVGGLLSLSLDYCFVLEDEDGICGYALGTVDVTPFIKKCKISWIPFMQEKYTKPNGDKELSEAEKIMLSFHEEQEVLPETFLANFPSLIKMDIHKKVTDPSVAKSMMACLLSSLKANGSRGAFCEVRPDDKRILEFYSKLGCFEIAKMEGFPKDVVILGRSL

- Papp [1]: 6.4 ×10⁻⁶ cm/s
- IC50 (Protein O-GlcNAcase): 7.9 nM
Compound: CCNC1=N[C@@H]2[C@@H](O)[C@H](O)[C@@H](C(F)F)O[C@@H]2S1
